The record followed here is article PMC11357661, “Gaining Insight into Mitochondrial Targeting: AUTAC-Biguanide as an Anticancer Agent” (Molecules, 2024).

SMILES strings stand for the structures. Like-named read-outs stand apart in the source and are kept apart here.

For data set [1], the system named is OXPHOS proteins (vATP5A, UQCR2, SDHB, COXII, NDUFB8) in KP4 cells. Briefly: Immunoblot of OXPHOS mitochondrial respiratory chain proteins. The data set is classed as cell-based. To be noted: KP4, 24 h of treatment. The procedure:
(§1) Immunoblot analysis: For the protein degradation assay, cells were seeded at a density of 1 × 10^5 cells per well in 6-well plates overnight, and then treated with vehicle and compounds for 24 h. The culture medium was removed. Cells were washed twice with cold PBS and lysed with LAEMMLI 2X (BIO-RAD, Hercules, CA, USA, 4% SDS, 20% glycerol, 0.125 M Tris-HCl (pH 6.8)). Equal amounts of protein were separated via sodium dodecyl sulfate-polyacrylamide gel electrophoresis (SDS-PAGE) and transferred to nitrocellulose membranes. […] Membranes were washed again with TBST and incubated with the primary antibody overnight at 4 °C. After being washed with TBST three times, the membranes were incubated with the secondary antibody for 1 h. After being washed with TBST three times, membranes were visualized using chemiluminescence using a Western Lightning™ Plus Chemiluminescence Reagent.
(In general: In western blotting, separated proteins are transferred to a membrane and probed.)

Data set [2] has as its system KP4 pancreatic cancer cells. The experiment in a line: Cell proliferation assay (crystal violet), EC50 determination. The data set is classed as cell-based. Particulars: for impact on the growth of cancer cells: KP4 and PANC1. The protocol:
(§2) Materials and methods for in vitro experiments: Absorbance measurements for EC50 determination were performed using a SpectraMax 190 microplates reader from Molecular Devices. […] Statistical analyses were also performed using the PRISM software, using a one-way ANOVA test. Protein concentrations were determined using a Nanodrop 2000c spectrophotometer from Thermo Scientific (Waltham, MA, USA). A ChemiDoc MP Imaging System from BIO-RAD (Hercules, CA, USA) was used for imaging and analyzing Western blots. Resulting data were treated with Image Lab software (version 6.1).
(§3) Cells were seeded at a density of 1 × 10^3 cells per well for KP4 and PANC1, 4 × 10^3 for IMR90, and 2 × 10^3 for hTERT-HPNE in 96 well plates one day prior to treatments with vehicle and compounds for 72 h. The culture medium was removed. Cells were washed twice with cold PBS, and 1% glutaraldehyde was added to the wells for fixation for 10 min. Cells were then washed with water, stained with 0.2% crystal violet for 30 min at room temperature, washed with water, and then dried. The adherent crystal violet was solubilized in 10% acetic acid and the absorbance was read at a wavelength of 590 nm for the calculation of the cell viability.

Data set [3] concerns IMR90 (lung fibroblasts, healthy cells). The description is as above. The format is cell-based. To be noted: for EC50: Homo sapiens, IMR-90, 72 h of treatment, mean ± SD; for effect on healthy cell line IMR90 (toxicity): at the concentrations examined. The protocol: (§4) Materials and methods for in vitro experiments: Absorbance measurements for EC50 determination were performed using a SpectraMax 190 microplates reader from Molecular Devices. Resulting data were analyzed with PRISM software (version 10.3.0) using curve fitting with non-linear regression (log(inhibitor) vs. response—variable slope (four parameters)). Statistical analyses were also performed using the PRISM software, using a one-way ANOVA test. Protein concentrations were determined using a Nanodrop 2000c spectrophotometer from Thermo Scientific (Waltham, MA, USA). A ChemiDoc MP Imaging System from BIO-RAD (Hercules, CA, USA) was used for imaging and analyzing Western blots. Resulting data were treated with Image Lab software (version 6.1).
as §3

Data set [4] deals with PANC1 pancreatic cancer cells. The description is as above. The data set is classed as cell-based. To be noted: Homo sapiens, PANC-1. The procedure: as §4, §3
Data set [5] deals with mitochondria (TOMM20) in KP4 cells. The experiment in a line: Immunofluorescence assay of TOMM20 (mitochondrial morphology). To be noted: KP4, 24 h; compound 6 200 µM, metformin 2 mM. The format is cell-based. The protocol: Immunofluorescence assay: KP4 cells were seeded at a density of 8 × 10^4 cells per well on top of microscope cover glasses in 6-well plates overnight. They were then treated with vehicle or the studied compounds for 24 h. The culture medium was removed, and cells were washed three times with cold PBS. A solution of 4% paraformaldehyde was added into the wells for fixation for 10 min. Cells were washed again three times with 0.1 M glycine in PBS, then incubated with a solution of 3% BSA and 0.2% […] in PBS for 5 min at room temperature. Cells were washed again three times with a solution of 3% BSA in PBS, then incubated overnight with the primary antibody TOMM20 (1:100 in PBS, pH 7.4, 3% BSA). Cells were washed three times with 3% BSA in PBS and incubated for 1 h with the secondary antibody AF488 (1:2000 in PBS, pH 7.4, 3% BSA). Cells were finally washed three times with 3% BSA in PBS. A drop of mounting medium for fluorescence with DAPI was used to adhere cover glasses to microscope slides.
Antibodies: • I. Tom20 Antibody (F-10) #sc-17764 (Santa Cruz Biotechnology, Dallas, TX, USA): 1:100, 3% BSA in 1X PBS; • II. Goat anti-Mouse IgG (H + L) Highly Cross-Adsorbed Secondary Antibody, Alexa Fluor™ 488 #A-11029 (ThermoFisher/Invitrogen, Waltham, MA, USA): 1:2000, 3% BSA in 1X PBS.

The test system of data set [6] is hTERT-HPNE (immortalized pancreatic cells, healthy cells). Briefly: Cell proliferation assay (crystal violet), EC50 determination. To be noted: for EC50: Homo sapiens, 72 h of treatment, mean ± SD; for effect on healthy cell line hTERT-HPNE (toxicity): at the concentrations examined. The data set is classed as cell-based, Human. The procedure: as §2
Cell Lines: Human pancreatic normal epithelial (HPNE hTERT) cells were obtained from Dr. M. Ouellette (University of Nebraska Medical Center). IMR90 was obtained from Coriell Institute (I90-79). PANC1 was obtained from ATCC and KP4 from the Massachusetts General Hospital Center for Molecular Therapeutics (CMT), courtesy of Dr. Bardeesy. […] All cell lines tested negative for mycoplasma contamination. No unpublished de novo cell lines were used.
as §3

The next data set deals with LC3-II in KP4 cells. Briefly: Immunoblot of LC3-I and LC3-II protein levels (autophagy). The format is cell-based. To be noted: KP4, 24 h; for LC3-II level: relative to DMSO, metformin 200 µM and 2 mM, 7 200 µM, 6 100 and 200 µM. The protocol:
as §1, with “Cells were washed twice with cold PBS and lysed with LAEMMLI 2X (BIO-RAD, Hercules, CA, USA, 4% SDS, 20% glycerol, 0.125 M Tris-HCl (pH 6.8)).” left out

For data set [7], the system named is mitochondria in KP4 cells. Briefly: Cell fluorescence assay: mitochondrial morphology by MitoTracker Deep Red FM confocal microscopy. The format is cell-based. To be noted: for mitochondrial morphology (MTDR): metformin 2 mM, 7 1 mM, 6 50-200 µM. The procedure: Cell fluorescence assay: KP4 cells were seeded at a density of 8 × 10^4 cells per well on top of microscope cover glasses in 6-well plates overnight. They were then treated with vehicle or the studied compounds for 24 h. The culture medium was refreshed with a solution of the MitoTracker® Deep Red FM (100 nM in DMEM). After 30 min at 37 °C, the medium was removed. Cells were washed twice with PBS and a solution of 4% paraformaldehyde was added into the wells for fixation for 10 min. Cells were washed again three times with 0.1 M glycine in PBS. A drop of mounting medium for fluorescence with DAPI was used to adhere cover glasses to microscope slides.

The mark [8] stands for this setting: Homo sapiens, PANC-1, KP4 and PANC1, text summary, read-out: median effective concentration / concentration of toxic activity on pancreatic cancer cell lines.
Setting [9] is: Pancreatic cancer cell, 72 h of treatment, mean ± SD, read-out: EC50 KP4.
Setting [10] is: Pancreatic cancer cell, in Figure 2, read-out: EC50 KP4 (Figure 2).
Setting [11] is: 72 h of treatment, mean ± SD, read-out: EC50 PANC1.

Consider `CN(C)C(=N)N=C(N)N` [Met., Metformin, reference compound], for which the “levels of OXPHOS mitochondrial respiratory chain proteins” value (“levels” for short) in data set [1] is “did not appear to affect the levels”. The EC50 in data set [2] (setting [8]) was 1 to 4 mM; in data set [2] (setting [9]), 1.49 ± 0.55 mM; in data set [2] (setting [10]), 2.21 mM; in data set [3], above 20 mM; in data set [4] (setting [11]), 3130 ± 1410 µM; in data set [6], above 20 mM. In data set [3], the “effect on healthy cell line IMR90 (toxicity)” value is on record as “no noticeable effect”. Moreover, the “mitochondrial morphology (TOMM20 immunofluorescence)” value in data set [5] is listed as “mild fragmentation of the network”.
With `CCN(CC)CCCC(C)Nc1ccnc2cc(Cl)ccc12` (stereo not drawn) [chloroquine, reference compound], the LC3-II level result in the data set with LC3-II in KP4 cells is “increase in LC3-II levels”.
Turning to `CC(=O)N[C@@H](CSc1nc2c(=O)[nH]c(N)nc2n1Cc1ccc(F)cc1)C(=O)O` [compound 5], the “impact on the growth of cancer cells” value in data set [2] is recorded as “no discernible impact”. Moreover, the EC50 in data set [2] (setting [9]) is above 5 mM; in data set [3] it was above 5 mM; in data set [4] (setting [11]), above 5000 µM; in data set [6], 3.51 ± 1.45 mM. The “effect on healthy cell line IMR90 (toxicity)” value in data set [3] was “without exhibiting toxicity”. Besides, in data set [6], the “effect on healthy cell line hTERT-HPNE (toxicity)” value is on record as “appeared to affect”.
In the case of `CC(=O)NC(CSc1nc2c(=O)[nH]c(N)nc2n1Cc1ccc(F)cc1)C(=O)NCCCCCCNC(=N)NC(=N)N.O=CO` (stereo not drawn) [compound 6], in data set [7] (KP4, 100 µM, 24 h of treatment, MTDR), the “cells displaying a fragmented or punctate mitochondrial network” value was “more than 50%”. Also, the “cells maintaining a filamentous network” value in data set [7] (KP4, 200 µM (doubling of 100 µM), 24 h, MTDR) was below 10%. The MTDR fluorescence intensity entry in data set [7] (KP4, 24 h) was “decrease in fluorescence intensity”. The “mitochondrial morphology (MTDR)” value in data set [7] (KP4, 24 h) is on record as “punctate configuration”. For the same molecule, the “levels” value in data set [1] is “decrease in complex I and complex IV mitochondrial respiratory chain proteins”. The EC50 in data set [2] (setting [8]) was around 0.1 mM; in data set [2] (setting [9]), 0.1 ± 0.03 mM; in data set [2] (setting [10]), 0.074 mM; in data set [3], above 1 mM; in data set [4] (setting [11]), 150 ± 30 µM; in data set [4] (in Figure 2, read-out: EC50 PANC1 (Figure 2)) it was 103 µM. The same molecule displayed an EC50 in data set [6] above 1 mM. For the same molecule, the “selectivity index (SI)” value in data set [2] (cancer cells over healthy cells, 72 h of treatment) is recorded as above 10. Further, the “effect on healthy cell line IMR90 (toxicity)” value in data set [3] was “no adverse impact”. In addition, the “mitochondrial morphology (TOMM20 immunofluorescence)” value in data set [5] is given as “majority of cells assumed a punctate appearance”. For the same molecule, the “effect on healthy cell line hTERT-HPNE (toxicity)” value in data set [6] was “no adverse impact”. For the same molecule, in the data set with LC3-II in KP4 cells (in the presence of chloroquine), the “effect on lysosomal degradation of LC3B (LC3-II with and without chloroquine)” value is on record as “does not affect the degradation of LC3B”. Further, the LC3-II level entry with LC3-II in KP4 cells was “mild increase in LC3-II levels”.
Regarding `CCCCCCNC(=O)C(CSc1nc2c(=O)[nH]c(N)nc2n1Cc1ccc(F)cc1)NC(C)=O` (stereo not drawn) [compound 7], the “mitochondrial morphology (MTDR)” value in data set [7] (KP4, 24 h) is “predominantly formed a filamentous network”. Besides, the “levels” value in data set [1] is given as “no effect on OXPHOS proteins”. For the same molecule, the “impact on the growth of cancer cells” value in data set [2] is “no discernible impact”. Moreover, the EC50 is above 1 mM in data set [2] (setting [9]), above 1 mM in data set [3], above 1000 µM in data set [4] (setting [11]) and 0.11 ± 0.02 mM in data set [6]. Also, the “effect on healthy cell line IMR90 (toxicity)” value in data set [3] is reported as “without exhibiting toxicity”. In addition, the “effect on healthy cell line hTERT-HPNE (toxicity)” value in data set [6] is “appeared to affect”. Also, the LC3-II level result with LC3-II in KP4 cells is “elevate LC3-II levels”.
